The source of these data is US20250262139A1, “POLYPEPTIDES AND METHODS FOR IMPROVING SKIN CONDITIONS” (INTERK PEPTIDE THERAPEUTICS LIMITED, priority 2020, published 2025).

Where no end group is shown, it is not given here.

Common to all, as to type: cell-based
The test system of assay [1] is human primary melanocytes. The assay is described as follows: melanin content after UVB, primary melanocytes. Conditions: 10 μM for 24 hours prior to 2 kJ/m2 UVB; measured 24 hours later; relative to untreated UVB cells. The procedure:
(§1) In brief, MM1418-C1 lightly pigmented melanoma cells or human primary melanocytes were grown in 24 well culture plates and treated with 10 μM
(§2) RSKAKNPLYRRRRRRRRR (“IK-3”) for 24 hours prior to being exposed to 2 kJ/m2 UVB radiation. Controls (not treated with RSKAKNPLYRRRRRRRRR) labelled “Con” and “UVB”, respectively, were exposed to either 0 or 2 KJ/m2 UVB radiation. Cell groups were returned to the incubator for 24 hours and then the levels of melanin and protein in the cells were measured spectrophotometrically. In each experiment triplicate samples were measured. Data shown in FIG. 19 indicate the average values+SEM (μg melanin/mg cell protein) exposed to 0 or 2 KJ/m2 UVB which had been pre-treated with 0 or 10 μM of RSKAKNPLYRRRRRRRRR 24 hours prior to being exposed to UVB radiation. The t-test (2-tailed) was used to determine statistical significance, *p<0.05, ***p<0.001.

For assay [2], the system named is MM1418-C1 lightly pigmented melanoma cells. The assay is described as follows: melanin content after UVB, melanoma cells. Conditions: 10 μM for 24 hours prior to 2 kJ/m2 UVB; measured 24 hours later; relative to untreated UVB cells. The procedure:
as §1, §2

Another assay concerns dermal fibroblasts. The assay is described as follows: TBARS lipid peroxidation assay, UV-irradiated dermal fibroblasts. Conditions: IK-3 at the highest concentration (5 μM); 1,25D. On the procedure: The ability of the polypeptide RSKAKNPLYRRRRRRRRR to alter UV-induced oxidative damage of cell-derived lipids was examined using the TBARS thiobarbituric acid-reactive substances (TBARS) lipid peroxidation assay.
After irradiation or sham-irradiation of dermal fibroblasts, supernatants (900 μL) were collected. In brief, 90 μL of butylated hydroxytoluene (2% w/w in ethanol) was added and samples kept frozen (−20° C.) until the TBARS assay. Petri dishes were washed twice with 1 mL of HBSS, cells scraped in 600 μL of water and 60 μL of 0.5% aqueous Triton X100 added to this solution, for protein determination carried out by the Lowry method (Lowry O H et al, J. Biol. Chem., 1951, 193:265-275). TBARS were fluorometrically assayed as described (Morlière P et al, Biochim. Biophys. Acta, 1991, 1084:261-268). Briefly, thawing samples were heated in the presence of thiobarbituric acid in acidic conditions, and TBARS extracted with 1-butanol and fluorometrically quantified (λexc=515 nm and Aem=550 nm). Tetraethoxypropane, which quantitatively yields the malondialdehyde-thiobarbituric acid adduct in the assay conditions, was used for calibration. TBARS values, expressed in malondialdehyde (MDA) equivalents, were normalized to the cell protein for each Petri dish. Each TBARS determination was performed in triplicate (e.g., with three Petri dishes per data point).

Regarding “RSKAKNPLYRRRRRRRRR (not fully specified (some residues)) [IK34720]”, the melanin content entry in assay [1] and in assay [2] was “significantly decreased melanin content” in each case. In the assay on dermal fibroblasts, the “significant difference in TRS (TBA reactive substances) between Sham and UV irradiation” value is given as “not seen”.
